In series [1] the test system is Staphylococcus aureus (ATCC29213). Briefly: In-vitro anti-bacterial microtitre plate assay, IC90 determination (STA 1 B29213). As to conditions: 90% inhibitory concentration for bacterial growth, 37° C., resazurin fluorescence; for IC90 values STA 1 B29213: 24 hours. The class given is cell-based. The procedure: (§1) The bacteria used in this study were grown overnight in flasks containing 100 ml Mueller-Hinton Broth (Becton Dickinson—cat. no. 275730) in sterile de-ionized water, with shaking, at 37° C. Stocks (0.5 ml/tube) were stored at −70° C. until use. Bacteria titrations were performed in microtiter plates to detect the TCID50, in which the TCID50 represents the dilution that gives rise to bacterial growth in 50% of inoculated cultures.
(§2) In general, an inoculum level of approximately 100 TCID50 was used for susceptibility testing.
(§3) Flat-bottom, sterile 96-well plastic microtiter plates were filled with 180 μl of sterile deionized water, supplemented with 0.25% BSA. Subsequently, stock solutions (7.8× final test concentration) of compounds were added in 45 μl volumes in column 2. Serial five-fold dilutions (45 μl in 180 μl) were made directly in the microtiter plates from column 2 to reach column 11. Untreated control samples with (column 1) and without (column 12) inoculum were included in each microtiter plate. Depending on the bacteria type, approximately 10 to 60 CFU per well of bacteria inoculum (100 TCID50), in a volume of 100 μl in 2.8× Mueller-Hinton broth medium, was added to the rows A to H, except column 12. The same volume of broth medium without inoculum was added to column 12 in row A to H. The cultures were incubated at 37° C. for 24 hours under a normal atmosphere (incubator with open air valve and continuous ventilation). At the end of incubation, one day after inoculation, the bacterial growth was quantitated fluorometrically. Therefore resazurin (0.6 mg/ml) was added in a volume of 20 μl to all wells 3 hours after inoculation, and the plates were re-incubated overnight. A change in colour from blue to pink indicated the growth of bacteria. The fluorescence was read in a computer-controlled fluorometer (Cytofluor Biosearch) at an excitation wavelength of 530 nm and an emission wavelength of 590 nm. The % growth inhibition achieved by the compounds was calculated according to standard methods.
(§4) STA 29213 means Staphylococcus aureus (ATCC29213); SPN 6305 means Streptococcus pneumoniae (ATCC6305); MSM 607 means M. Smegmatis (ATCC607); ATCC means […].
A general note: Resazurin is reduced to fluorescent resorufin, in cell work by metabolically active cells.

Series [2] has as its system Streptococcus pneumoniae (ATCC6305). Briefly: In-vitro anti-bacterial microtitre plate assay, IC90 determination (SPN 1 6305). The class given is cell-based. To be noted: 90% inhibitory concentration for bacterial growth, 37° C., resazurin fluorescence; for IC90 values SPN 1 6305: 24 hours. As for the experimental part: as §1, §2, §3, §4
A further series has as its system M. Smegmatis (ATCC607). Nature of the series: In-vitro anti-bacterial activity against strain M. Smegmatis ATCC607. The format is cell-based. As to conditions: 90% inhibitory concentration for bacterial growth, 37° C., Alamar Blue fluorescence; for IC90 values MSM 1 ATCC607: 48 hours. The procedure: Flat-bottom, sterile 96-well plastic microtiter plates were filled with 180 μl of sterile deionized water, supplemented with 0.25% BSA. Subsequently, stock solutions (7.8× final test concentration) of compounds were added in 45 μl volumes to a series of duplicate wells in column 2 so as to allow evaluation of their effects on bacterial growth. Serial five-fold dilutions (45 μl in 180 μl) were made directly in the microtiter plates from column 2 to 11 using a customised robot system (Zymark Corp., Hopkinton, Mass.). Pipette tips were changed after every 3 dilutions to minimize pipetting errors with high hydrophobic compounds. Untreated control samples with (column 1) and without (column 12) inoculum were included in each microtiter plate. Approximately 250 CFU per well of bacteria inoculum, in a volume of 100 μl in 2.8× Mueller-Hinton broth medium, was added to the rows A to H, except column 12. The same volume of broth medium without inoculum was added to column 12 in row A to H. The cultures were incubated at 37° C. for 48 hours in a humidified 5% CO2 atmosphere (incubator with open air valve and continuous ventilation). At the end of incubation, two days after inoculation, the bacterial growth was quantitated fluorometrically. Therefore Alamar Blue (10×) was added to all wells in a volume of 20 μl and plates were incubated for another 2 hours at […]
The fluorescence was read in a computer-controlled fluorometer (Cytofluor, Biosearch) at an excitation wavelength of 530 nm and an emission wavelength of 590 nm (gain 30).
as §4

Converted amounts (≈) assume the structure as drawn.

By IC90 is commonly meant the concentration at which the effect reaches the 90% level. A word on the melting point: it is the temperature, or range, at which the solid turns liquid. The molecule `COc1nc2ccccc2cc1C(c1cccc(-c2cnc3ccccc3c2)c1)C(O)(CCCCN(C)C)c1ccc2ccccc2c1` (single isomer, unassigned) [Compound 16] showed a melting point of 141 °C. In addition, in series [1] (Staphylococcus aureus, ATCC29213, 24 h), the IC90 amounted to 2 µg/mL (≈ 3.17 µM). Further, the IC90 in series [2] (Streptococcus pneumoniae, ATCC6305, 24 h) worked out at 2 µg/mL (≈ 3.17 µM). In addition, the IC90 with M. Smegmatis (ATCC607) (Mycolicibacterium smegmatis, ATCC607, 48 h, read-out: IC90 values MSM 1 ATCC607) was 2 µg/mL (≈ 3.17 µM).

For the molecule `COc1nc2ccc(Br)cc2cc1C(c1ccccc1)C(O)(CCCCN1CCN(C)CC1)COc1ccccc1` (single isomer, unassigned) [Compound 20], the melting point stood at 144 °C. The “IC90 values STA 1 B29213” value in series [1] worked out at 49.1 µg/mL (≈ 79.4 µM). The “IC90 values SPN 1 6305” value in series [2] turned out to be 9.8 µg/mL (≈ 15.8 µM). Also, in the series with M. Smegmatis (ATCC607), the “IC90 values MSM 1 ATCC607” value worked out at 9.8 µg/mL (≈ 15.8 µM).

`COc1nc2ccc(Br)cc2cc1C(c1ccc(Cl)cc1)C(O)(CCCCN1CCN(C)CC1)COc1ccccc1` (single isomer, unassigned) [Compound 22] showed a melting point of 158 °C. The “IC90 values STA 1 B29213” value in series [1] is 32.7 µg/mL (≈ 50.1 µM). Further, in series [2], the “IC90 values SPN 1 6305” value was found to be 11.6 µg/mL (≈ 17.8 µM). In addition, in the series with M. Smegmatis (ATCC607), the “IC90 values MSM 1 ATCC607” value turned out to be 8.2 µg/mL (≈ 12.6 µM).

Molecule `COc1nc2ccc(Br)cc2cc1C(c1ccccc1)C(O)(CCCCN1CCN(C)CC1)COc1ccc(C)cc1` (single isomer, unassigned) [Compound 24] had a melting point of 168 °C. Further, in series [1], the “IC90 values STA 1 B29213” value came to 39.9 µg/mL (≈ 63.1 µM). Further, the “IC90 values SPN 1 6305” value in series [2] is 10.0 µg/mL (≈ 15.8 µM). Moreover, the “IC90 values MSM 1 ATCC607” value in the series on M. Smegmatis (ATCC607) was found to be 10.0 µg/mL (≈ 15.8 µM).

As for `COc1nc2ccc(Br)cc2cc1C(c1ccccc1)C(O)(CCCCN1CCN(C)CC1)COCc1ccccc1` (single isomer, unassigned) [Compound 28], the melting point is 122 °C. In series [1], the “IC90 values STA 1 B29213” value turned out to be 10.0 µg/mL (≈ 15.8 µM). In series [2], the “IC90 values SPN 1 6305” value stood at 12.6 µg/mL (≈ 19.9 µM). The “IC90 values MSM 1 ATCC607” value in the series on M. Smegmatis (ATCC607) turned out to be 4.5 µg/mL (≈ 7.11 µM).

`COc1nc2ccc(Br)cc2cc1C(c1ccc2c(c1)OCO2)C(O)(CCN(C)C)c1ccccc1` (single isomer, unassigned) [Compound 30] showed a melting point of 159 °C. Moreover, the “IC90 values STA 1 B29213” value in series [1] worked out at 55.0 µg/mL (≈ 100 µM). The “IC90 values SPN 1 6305” value in series [2] came out at 1.7 µg/mL (≈ 3.09 µM). Moreover, the “IC90 values MSM 1 ATCC607” value in the series on M. Smegmatis (ATCC607) was 0.4 µg/mL (≈ 0.728 µM).

The record behind these values is US8293732B2, “Antibacterial quinoline derivatives” (Janssen Pharmaceutica N.V., priority 2006, dated 2012).
